From ChEMBL document CHEMBL1145121, “Docking studies on alphavbeta3 integrin ligands: pharmacophore refinement and implications for drug design” (J Med Chem, 2003)

target: Integrin alpha-V/beta-3 (Homo sapiens, UniProt P05106+P06756); assay: Inhibition of binding to alphaV-beta3 integrin; type: protein-complex assay
Sequence (P05106 27-788 limits assumed): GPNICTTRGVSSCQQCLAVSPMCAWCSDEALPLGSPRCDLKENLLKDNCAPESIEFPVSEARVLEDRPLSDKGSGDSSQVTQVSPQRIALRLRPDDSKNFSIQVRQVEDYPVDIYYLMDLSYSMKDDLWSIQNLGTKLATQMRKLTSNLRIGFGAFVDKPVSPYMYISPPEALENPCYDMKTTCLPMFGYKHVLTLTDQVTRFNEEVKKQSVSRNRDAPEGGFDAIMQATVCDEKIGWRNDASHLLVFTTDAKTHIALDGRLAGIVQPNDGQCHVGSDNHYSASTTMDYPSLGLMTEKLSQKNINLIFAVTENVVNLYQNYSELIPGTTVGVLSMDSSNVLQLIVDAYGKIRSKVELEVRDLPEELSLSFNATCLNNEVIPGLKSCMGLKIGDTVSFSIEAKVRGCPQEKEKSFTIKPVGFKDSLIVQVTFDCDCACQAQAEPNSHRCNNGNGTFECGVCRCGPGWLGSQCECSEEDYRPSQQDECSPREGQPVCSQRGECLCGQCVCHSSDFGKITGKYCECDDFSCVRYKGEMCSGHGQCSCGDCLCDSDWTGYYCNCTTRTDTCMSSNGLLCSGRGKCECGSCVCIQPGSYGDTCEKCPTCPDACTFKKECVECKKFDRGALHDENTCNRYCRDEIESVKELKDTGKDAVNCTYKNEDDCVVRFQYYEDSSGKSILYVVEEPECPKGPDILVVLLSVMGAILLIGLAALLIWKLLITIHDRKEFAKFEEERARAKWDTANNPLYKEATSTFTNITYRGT
Sequence (P06756 31-889 limits assumed): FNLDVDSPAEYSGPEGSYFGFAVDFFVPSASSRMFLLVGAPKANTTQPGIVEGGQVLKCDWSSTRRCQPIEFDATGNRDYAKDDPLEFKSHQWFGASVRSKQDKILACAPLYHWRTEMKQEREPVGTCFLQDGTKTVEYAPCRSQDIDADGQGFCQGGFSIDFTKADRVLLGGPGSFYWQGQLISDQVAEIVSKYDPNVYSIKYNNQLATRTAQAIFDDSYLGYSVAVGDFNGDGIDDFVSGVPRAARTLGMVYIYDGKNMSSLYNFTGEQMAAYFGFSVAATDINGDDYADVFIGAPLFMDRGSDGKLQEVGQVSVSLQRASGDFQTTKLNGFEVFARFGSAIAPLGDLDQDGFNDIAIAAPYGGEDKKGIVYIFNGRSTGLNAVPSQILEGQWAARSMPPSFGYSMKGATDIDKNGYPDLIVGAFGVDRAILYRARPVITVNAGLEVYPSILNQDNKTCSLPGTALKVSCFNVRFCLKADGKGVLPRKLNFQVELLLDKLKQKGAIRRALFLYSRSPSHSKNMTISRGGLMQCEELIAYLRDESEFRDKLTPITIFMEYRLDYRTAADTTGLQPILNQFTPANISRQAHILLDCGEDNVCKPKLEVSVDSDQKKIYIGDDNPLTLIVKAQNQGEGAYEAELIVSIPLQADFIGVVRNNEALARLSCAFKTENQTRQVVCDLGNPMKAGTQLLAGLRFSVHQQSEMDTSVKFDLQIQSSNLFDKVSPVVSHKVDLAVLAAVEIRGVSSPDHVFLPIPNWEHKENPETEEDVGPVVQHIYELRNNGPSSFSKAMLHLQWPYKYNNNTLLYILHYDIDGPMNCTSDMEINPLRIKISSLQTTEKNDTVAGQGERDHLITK
Sequence (P06756 891-1048 limits assumed): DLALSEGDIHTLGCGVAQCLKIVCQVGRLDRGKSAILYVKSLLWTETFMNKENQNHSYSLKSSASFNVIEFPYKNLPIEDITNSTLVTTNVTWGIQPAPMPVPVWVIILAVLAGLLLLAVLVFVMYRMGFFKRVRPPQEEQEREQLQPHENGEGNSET

| Structure (SMILES) | IC50 [nM] |
| --- | --- |
| N=C(N)Nc1cccc(C(=O)NNC(=O)N[C@@H](CC(=O)O)C(N)=O)c1 | 150 |
| N=C(N)Nc1cccc(C(=O)NNC(=O)NC(CC(=O)O)c2ccccc2)c1 (stereo unspecified) | 2.6 |
| CC(C)C[C@H]1NC(=O)[C@H](CCCN=C(N)N)NC(=O)CNC(=O)[C@@H](CC(=O)O)NC(=O)[C@@H](Cc2ccccc2)NC1=O | 40 |
| NC(=O)[C@@H](CC(=O)O)NC(=O)NNC(=O)c1cccc(N=C(N)N)c1 | 7200 |

Compounds with a lower IC50, results first:

| IC50 [nM] | Structure (SMILES) |
| --- | --- |
| 0.8 | CC(C)C[C@H]1C(=O)N[C@@H](CCCNC(=N)N)C(=O)NCC(=O)N[C@@H](CC(=O)O)C(=O)N[C@@H]2CCN1C2=O |
| 0.6 | CC(C)C[C@H]1C(=O)N[C@@H](CCCN=C(N)N)C(=O)NCC(=O)N[C@@H](CC(=O)O)C(=O)N[C@H](Cc2ccccc2)C(=O)N1C |
